{
  "source": "paper PMC9960821",
  "about": "“Evaluation of Rhenium and Technetium-99m Complexes Bearing Quinazoline Derivatives as Potential EGFR Agents” (Molecules, 2023)",
  "key": {"EGFR": {"target": "T1, EGFR (Homo sapiens, UniProt P00533)", "T1 construct": "by immunoblotting in intact A431 cells that overexpress EGFR; endogenous in cells; host or cells: A431 (human epidermoid vulvar carcinoma)", "T1 sequence (P00533 25-1210)": "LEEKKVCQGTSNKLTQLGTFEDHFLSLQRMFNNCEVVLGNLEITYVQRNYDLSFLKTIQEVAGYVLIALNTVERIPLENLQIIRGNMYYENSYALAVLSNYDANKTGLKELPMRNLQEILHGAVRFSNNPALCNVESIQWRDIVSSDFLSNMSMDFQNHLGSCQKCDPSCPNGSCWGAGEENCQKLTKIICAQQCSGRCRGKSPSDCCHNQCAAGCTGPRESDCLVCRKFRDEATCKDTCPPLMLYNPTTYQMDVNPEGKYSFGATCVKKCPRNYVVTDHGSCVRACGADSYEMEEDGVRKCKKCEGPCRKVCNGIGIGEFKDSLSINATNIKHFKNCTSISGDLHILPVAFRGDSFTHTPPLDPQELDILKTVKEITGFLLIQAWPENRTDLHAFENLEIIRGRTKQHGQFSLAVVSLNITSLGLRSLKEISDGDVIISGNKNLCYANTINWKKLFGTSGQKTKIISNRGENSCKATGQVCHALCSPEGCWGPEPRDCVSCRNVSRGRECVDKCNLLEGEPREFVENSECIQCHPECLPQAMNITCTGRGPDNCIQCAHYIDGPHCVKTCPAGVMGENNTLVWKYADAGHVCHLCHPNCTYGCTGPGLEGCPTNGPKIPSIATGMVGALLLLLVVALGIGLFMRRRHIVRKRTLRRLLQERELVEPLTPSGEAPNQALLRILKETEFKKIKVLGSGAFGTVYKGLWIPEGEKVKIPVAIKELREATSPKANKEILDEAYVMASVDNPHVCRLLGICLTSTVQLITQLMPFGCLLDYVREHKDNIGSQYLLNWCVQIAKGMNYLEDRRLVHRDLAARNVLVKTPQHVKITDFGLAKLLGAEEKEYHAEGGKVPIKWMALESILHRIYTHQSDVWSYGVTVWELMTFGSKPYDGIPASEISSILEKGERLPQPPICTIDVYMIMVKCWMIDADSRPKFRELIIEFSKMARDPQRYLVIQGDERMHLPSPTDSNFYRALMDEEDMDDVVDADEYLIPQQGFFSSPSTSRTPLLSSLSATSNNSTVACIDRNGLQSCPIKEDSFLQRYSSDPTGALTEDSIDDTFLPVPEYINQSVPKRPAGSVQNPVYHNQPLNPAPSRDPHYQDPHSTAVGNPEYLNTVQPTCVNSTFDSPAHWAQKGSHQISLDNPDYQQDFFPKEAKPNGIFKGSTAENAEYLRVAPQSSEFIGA", "assay": "Inhibition of EGFR phosphorylation in intact A431 cells (immunoblotting)", "assay_type": "cell-based", "settings": "2 h compound then EGF 20 ng/mL 5 min, Western blot", "description": "Complex 5a was evaluated for its potency to inhibit EGFR phosphorylation in various concentrations by immunoblotting in intact A431 cells that overexpress EGFR (Figure 3). In addition, the percentage of EGFR phosphorylation was calculated, and a dose-response curve was performed (Figure 4).\nCell line. The in vitro biological studies were established using the human epidermoid vulvar carcinoma A431 cell line, which overexpresses EGFR. Cells were available in our laboratory from previous studies. Cells were maintained in high glucose D-MEM medium with L-glutamine (PAA Laboratories GmbH, Pasching, Austria) and supplemented with 10% fetal bovine serum (PAA Laboratories GmbH) and penicillin/streptomycin (PAA Laboratories GmbH) 100 UI/100 μg per mL, in 5% CO2 incubator at 37 °C.\nThe inhibition of EGFR phosphorylation was studied as described in the literature. A431 cells (5 × 10^5 cells/well) were seeded in 6-well plates and incubated for 24 h. Then, the medium was replaced with fresh medium without fetal bovine serum. […] Protein band quantification was performed using Image-J software, and the percentage of EGFR phosphorylation inhibition was calculated using GraphPad Prism 9.0 software."}, "[1]": {"assay": "Cysteine and histidine challenge of 99mTc complexes (RP-HPLC)", "assay_type": "physicochemical", "description": "The stability of complexes 5b and 7b was studied in their reaction mixture and after isolation by HPLC for up to 24 h.\nCysteine and histidine challenge: Histidine (100 µL, 1 × 10^−2 M) or cysteine (100 µL, 1 × 10^−2 M) solution in 0.1 M PBS was mixed with 100 µL (50–120 MBq) of the RP-HPLC isolated ^99mTc complexes in 0.1 M PBS (800 µL). The mixtures were incubated at 37 °C for up to 24 h and analyzed by RP-HPLC at 1, 6, and 24 h intervals."}, "[2]": {"assay": "Lipophilicity, shake-flask distribution coefficient", "assay_type": "physicochemical", "settings": "n-octanol/0.1 M phosphate buffer pH 7.4", "description": "The pharmacokinetic profile of the studied compounds could be affected by their lipophilicity, expressed as the logarithm of the distribution coefficient (log Do/w). The lipophilicity of complexes 5b and 7b was determined in physiological conditions (n-octanol/0.1 M phosphate buffer pH 7.4). […] The presence of the pyridine ring in the chemical structure of complex […] increases the log D7.4 value, as expected.\nThe distribution coefficient of the 5b and 7b complexes was determined with the shake-flask method. The RP-HPLC isolated ^99mTc complexes (20 μL, ~75 kBq) were mixed with 2 mL of 1-octanol and 2 mL of phosphate buffer solution (PBS, 0.1 M, pH 7.4) in a centrifuge tube. The mixture was vortexed at room temperature for 2 min and centrifuged at 5000 rpm for 10 min. The radioactivity of each phase (200 μL) was counted in a gamma counter. The distribution coefficient was calculated by dividing the cpm/mL in the 1-octanol phase by those in the buffer, and the results were expressed as logD7.4. Each experiment was run in triplicate."}},
  "data": [
    {"smiles": "O=C([O-])CN(CCCCCC(=O)Nc1ccc2ncnc(Nc3cccc(Br)c3)c2c1)Cc1ccccn1.[99Tc+].[C-]#[O+].[C-]#[O+].[C-]#[O+]", "note": "[Compound 5b, fac-[^99mTc(NNO)(CO)3]]", "values": [
      {"measurement": "IC50", "setting": "EGFR", "result": 26.1, "unit": "nM"},
      {"measurement": "Stability after incubation with excess of histidine and cysteine", "setting": "[1]; 24 h, molar ratio 1/1000, HPLC", "result": "> 95", "unit": "%"},
      {"measurement": "%RCP in Cysteine for 24 h", "setting": "[1]; excess cysteine, 37 °C", "result": "99 ± 1", "unit": "%"},
      {"measurement": "%RCP in Histidine for 24 h", "setting": "[1]; excess histidine, 37 °C", "result": "99 ± 1", "unit": "%"},
      {"measurement": "log D7.4", "setting": "[2]", "result": "3.27 ± 0.25"}
    ]}
  ]
}
